Assay results reported in patent US5958770A, “Glycoalkaloids” (priority 1990, dated 1999).
“Also recorded” adds a separate entry of the source. Read-outs that look alike come from different tables or passages of the source.

Columns and labels:
[1] = tested on: ovarian cancer cells; assay: Inhibition of tritiated thymidine uptake, ovarian cancer cells
Protocol: (§1) The inhibition of cell replication by steroid alkaloids is determined by the inhibition of the incorporation of ^3 H thymidine into DNA. Using this technique, it should be possible to monitor any preferential inhibition of uptake of ^3 H thymidine by cancer cells.
(§2) Cells were maintained as monolayers in RPM1-1640 tissue culture media (Grant Island Biological Co) buffered with N-2-hydroxy-ethylpiperazine-N-2-ethanesulphonic acid pH 7.5 and supplemented with 10% heat inactivated fetal calf serum (FCS): (i) a human ovarian cancer cell line (C180-135), (ii) HeLa cells, (iii) human fibroblasts, and (iv) as a cell suspension of lymphoblastoid cells (EBV transformed lymphocytes). Monolayers were trypsinized to form a cell suspension. […] Cell concentration was adjusted to 2×10^5 cells/ml, and 2×10^4 cells were added in replicates of 10 to the wells (1×10^5 /ml well) of HA microtitre plates (Millipore Corp., USA). The cells were preincubated at 37.5° C. for 7 hours prior to the addition of 50 μl of the cytotoxic drug followed by the addition of 50 μl 5 uCi/ml of ^3 H thymidine, in the same tissue culture media 21 hours later. Incubation was continued for a total of 24 hours, which includes the pre-incubation time.
(§3) Appropriate DMSO cytotoxicity studies were also conducted. Solasodine glycosides were supplied as a mixture (BEC), and as separate components, solamargine, solasonine, a mixture of di- and mono-glycosides and the aglycone solasodine. All cytotoxic drugs were further diluted with HIFCS/TCM before testing. 5×10^4 ovarian cancer cells (200 μl/chamber of a chamber of microscope slide (Lab Tek Miles Scientific) were used. Controls received 50 μl HIFCS/TCM and experimental chambers 50 μl of solasodine glycosides (BEC) 1.5-3.8 μM/L after 7 hrs preincubation, and incubated for a further 3 hrs. Similarly, the cells were treated with the aglycone solasodine 19.4-96.8 μM/L. The cells were fixed and examined by the Papanicolaou method.

[2] = tested on: HeLa cells; assay: cells
Protocol: as §1, §2, §3

[3] = tested on: ovarian cancer cells; assay: Solamargine cytotoxicity in presence and absence of carbohydrates, ovarian cancer cells; type: cell-based, human; details: Homo sapiens, OvCa, solamargine 1.54 μM/L, read-out: Percentage Survival
Protocol: (§4) A mixture of solasodine glycosides (BEC), of which the active compound is solamargine and from which the aglycone solasodine is derived was prepared for use in cytotoxicity assays as determined by the uptake of tritiated thymidine. Inhibition studies were carried out with lactose, lactosyl-albumin, galactose or rhamnose (Sigma Chemical Co., USA). All experimental replicates were related to their own controls. Total volume of replicates was 250 μl (carbohydrates added in 50 μl tissue culture media+10% fetal calf serum), and the cell concentrations were 8×10^4 /ml.

[4] = tested on: lymphoblastoid cells; assay: Solamargine cytotoxicity in presence and absence of carbohydrates, lymphoblastoid cells; type: cell-based; details: Homo sapiens, Lymphoblastoid cell, LCL, solamargine 3.1 μM/L, read-out: Percentage Survival
Protocol: as §4

[5] = tested on: fibroblasts; assay: Solamargine cytotoxicity in presence and absence of carbohydrates, fibroblasts; type: cell-based, human; details: Homo sapiens, Fibroblast, Fb, solamargine 3.1 μM/L, read-out: Percentage Survival
Protocol: as §4

[6] = tested on: ovarian cancer cells; assay: Morphological examination of ovarian cancer cells (Papanicolaou); type: cell-based, human; details: 17 hours; FIG. 4B
Protocol: Appropriate DMSO cytotoxicity studies were also conducted.
A human ovarian cancer cell line (C180-135) was grown as mono layers and trypsinized to form a cell suspension. The cells were adjusted to a concentration of 1×10^5 /ml (viability ≥95%) and 200 μl placed in each of the eight chambers of microscope chamber slides (Lab Tek, Miles Scientific). After 21 hours preincubation at 37.5° C., 50 μl of supplemented tissue culture media were added to the control chambers. To the other chambers were added 50 μl of solasodine glycosides (BEC) to give final concentrations of 3, 4.8, 6.7, 7.7, 9.6, 11.1 and 15.3 μM/L. Similarly, to a separate chamber slide was added the aglycone solasodine (19.4-96.8 μM/L). The slides were incubated at 37.5° C. for a further 3 hours, and the cells fixed in 95% V/V alcohol and stained by the Papanicolaou method. Two other chamber slides were prepared in a similar manner, but the solasodine glycosides and the aglycone were added at a final concentration of 0.77, 1.5, 2.3, 3.1 and 3.8 μM/L after 7 hours preincubation, and they incubated for a further 17 hours.

[7] = tested on: human spermatozoa; assay: Immobilization of spermatozoa; type: cell-based; details: for effect on spermatozoa (words): solamargine/eosin, FIG. 5
Protocol: In order to observe any immobilization of spermatozoa, sperm (10×10^6 /ml) (50 μl) were placed on a microscope slide separated from 50 μl of solamargine (1 mg/ml) by 5 μl of eosin. A cover slip was then placed over the slide. […] This is a standard method known in the art. It was noted that sperm was not present on the side of the slide where the drop of solasodine glycosides was placed.

[8] = tested on: ovarian cancer cells, HeLa cells, lymphoblastoid cells, fibroblasts; assay: Cytotoxicity / inhibition of tritiated thymidine uptake, cell types taken together
Protocol: as §1, §2, §3

[9] = in vitro; details: human, unstimulated lymphocytes
Protocol: (§5) This was cultured for 48 hours and pulsed with tritiated thymidine for a further 24 hours. In the inhibition studies, the cell concentration was 8×10^5 /ml.
(§6) All cells were harvested by vacuum filtration by washing in 250 μl of each of phosphate buffered saline, 5% trichloroacetic acid, 1.0M NaCl and 95% ethanol and subjected to β-scintillatian counting. Similarly, peripheral human blood lymphocytes were isolated and cultured 2×10^5 lymphocytes in CO2 1640TCM 10% HIFCS. Lymphocytes were stimulated with 20 μg/ml PHA, Con A or PWM, and cultured for 48 hrs followed by a 24 hr pulse. […] Cell concentrations were 8×10^4 /well total volume 250 μl. The dpm of the experimental replicates were expressed as a percentage of the mean value of the controls, and the mean value of the experimental replicates calculated.

[10] = in vitro; details: human, pha stimulated lymphocytes
Protocol: as §5, §6

[11] = in vitro; details: human, con a stimulated lymphocytes
Protocol: as §5, §6

[12] = in vitro; details: human, pwm stimulated lymphocytes
Protocol: as §5, §6

[13] = tested on: unstimulated lymphocytes; assay: Inhibition of tritiated thymidine uptake, unstimulated lymphocytes; details: unstimulated lymphocytes
Protocol: as §5, §6

[14] = tested on: PHA stimulated lymphocytes; assay: Inhibition of tritiated thymidine uptake, PHA stimulated lymphocytes; details: PHA stimulated lymphocytes
Protocol: as §5, §6

[15] = tested on: PWM stimulated lymphocytes; assay: Inhibition of tritiated thymidine uptake, PWM stimulated lymphocytes; details: PWM stimulated lymphocytes
Protocol: as §5, §6

[16] = tested on: Con A stimulated lymphocytes; assay: Inhibition of tritiated thymidine uptake, Con A stimulated lymphocytes; details: Con A stimulated lymphocytes
Protocol: as §5, §6

[17] = 1.1 μM/L galactose, *** p < 0.001
[18] = 1.1 μM/L lactose, *** p < 0.001

Compound: C[C@@H]1CC[C@@]2(NC1)O[C@H]1C[C@H]3[C@@H]4CC=C5C[C@@H](O[C@@H]6O[C@H](CO)[C@@H](O[C@@H]7O[C@@H](C)[C@H](O)[C@@H](O)[C@H]7O)[C@H](O)[C@H]6O[C@@H]6O[C@@H](C)[C@H](O)[C@@H](O)[C@H]6O)CC[C@]5(C)[C@H]4CC[C@]3(C)[C@H]1[C@@H]2C [Solamargine, solamargine]
- IC50 ([1]; Homo sapiens, read-out: LD50 (dose to inhibit 50% tritiated thymidine uptake)): 1550 nM
- viability at 11.5 µM ([1]; Homo sapiens, read-out: Percentage Cell Survival): 7 ± 0.8%
- LD50 of solamargine less than that of vinblastine, chlorambucil or cis-platinum ([1]; ovarian cancer cells, fold lower): 6-40 times
- TR50 (thymidine ratio relative to ovarian cancer cells) ([2]; HeLa / OvCa): 1.6
- IC50 ([2]; Homo sapiens, HeLa, read-out: LD50 (dose to inhibit 50% tritiated thymidine uptake)): 2500 nM
- viability at 11.5 µM ([2]; Homo sapiens, HeLa, read-out: Percentage Cell Survival): 2.6 ± 0.5%
- viability at 1.54 µM ([3]; 1.1 μM/L galactose, ** p = 0.001): 79%
- viability at 1.54 µM ([3]; 1.1 μM/L lactose, * p < 0.02 > 0.01): 75%
- viability at 1.54 µM ([3]; 1.1 μM/L rhamnose): 67 ± 7.5%
- viability at 1.54 µM ([3]; no carbohydrate): 62 ± 7%
- viability at 3.1 µM [4, 17]: 42%
- viability at 3.1 µM [4, 18]: 47%
- viability at 3.1 µM ([4]; 1.1 μM/L rhamnose): 36 ± 4.5%
- viability at 3.1 µM ([4]; no carbohydrate): 34 ± 3%
- viability at 3.1 µM [5, 17]: 101%
- viability at 3.1 µM [5, 18]: 100%
- viability at 3.1 µM ([5]; 1.1 μM/L rhamnose, *** p < 0.001): 87%
- viability at 3.1 µM ([5]; no carbohydrate): 58 ± 9.6%
- morphological effect on ovarian cancer cells [6]: absence of cancer cells upon cytological examination
- time to immobilization of sperm ([7]; solamargine 1 mg/ml): ≤ 15 s
- effect on spermatozoa (words) [7]: inhibit human spermatozoal motility
- effect on spermatozoa (words) ([7]; listed as solamargine): dead intact spermatozoa
- preferential cytotoxicity for cancer cells ([8]; cancer cells relative to other cell types): preferentially inhibits the uptake of tritiated thymidine by cancer cells
- LD50 for ovarian cancer cell line and HeLa cells less than that for lymphoblastoid cells and fibroblasts ([8]; fold lower): 1.5-3.3 times
- viability at 11.5 µM [9]: 76 ± 9.6%
- viability at 11.5 µM [10]: 93 ± 4.4%
- viability at 11.5 µM [11]: 79 ± 4%
- viability at 11.5 µM [12]: 93 ± 9.4%
- cytotoxicity (words) [13]: limited effect; also recorded: limited cytotoxicity
- cytotoxicity (words) [14]: absence of cytotoxicity
- cytotoxicity (words) [15]: absence of cytotoxicity
- cytotoxicity (words) [16]: limited effect; also recorded: limited cytotoxicity
